Tests used:
[1] = test system: non-small cell lung carcinoma cell line NCI-H460; assay: Cytotoxicity assay (SRB), NCI-H460; type: cell-based, Human; conditions: 3 days exposure, SRB staining
Description: (§1) Cell lines and culture conditions: Human breast carcinoma cell line MCF-7, multi-drug resistant breast carcinoma cell line NCI/ADR, non-small cell lung carcinoma cell line NCI-H460 and glioma cell line SF-268 were obtained from the National Cancer Institute. All cell lines were maintained in RPMI-1640 medium (Gibco/BRL, Rockville, Md.) supplemented with 2 mM L-glutamine, 25 mM HEPES and 10% FBS (Hyclone, Logan, Utah). Cells were maintained in a humidified incubator at 37° C. in 5% CO2.
(§2) Cytoloxicity assays: Tumor cells were seeded in 100 μl at 5000 (MCF-7), 7500 (NCI/ADR), 5000 (NCI-H460) and 7500 (SF-268) cells per well in 96-well plates. Cells were allowed to adhere for 24 hours. Each compound ranging from 0.001 to 1000 nM in 100 μl was added to cells in triplicate wells. After 3 days, cells were fixed at 4° C. for 1 hour with 10% trichloroacetic acid and then stained with 0.2% sulforhodamine B (SRB)/1% acetic acid for 20 minutes at room temperature. The unbounded dye was rinsed away with 1% acetic acid, and the bounded SRB was then extracted with 200 μl of 10 mM Tris base. The absorbance was measured at 515 nm using a 96-well microtiter plate reader (Spectra Max 250, Molecular Devices). The IC50 values were calculated using a KaleidaGraph program. The experiments were performed twice.

[2] = test system: glioma cell line SF-268; assay: Cytotoxicity assay (SRB), SF-268; type: cell-based, Human; conditions: 3 days exposure, SRB staining
Description: as §1, §2

[3] = test system: multi-drug resistant breast carcinoma cell line NCI/ADR; assay: Cytotoxicity assay (SRB), NCI/ADR; type: cell-based, Human; conditions: 3 days exposure, SRB staining
Description: as §1, §2

[4] = test system: tubulin; assay: Preliminary tubulin polymerization activity; type: biochemical; conditions: preliminary biological investigations
[5] = test system: Human breast carcinoma cell line MCF-7; assay: Cytotoxicity assay (SRB), MCF-7; type: cell-based; conditions: 3 days exposure, SRB staining
Description: as §1, §2

[6] = test system: tumor cell; assay: Tumor cell growth assays; type: cell-based; conditions: fold as active as epothilone B

Row | SMILES | IC50 [1] [nM] | IC50 [2] [nM] | IC50 [3] [nM] | tubulin polymerization activity [4] | IC50 [5] [nM] | activity relative to epothilone B itself [6] [×] | IC50 ([1]; Homo sapiens, NCI-H460, 72 h) [nM] | IC50 ([2]; Homo sapiens, SF-268, 72 h) [nM] | IC50 ([3]; Homo sapiens, NCI/ADR-RES, 72 h) [nM] | IC50 ([5]; Homo sapiens, MCF7, 72 h) [nM]
1 | C/C1=C/[C@@H](C)[C@@H](/C(C)=C/c2csc(C)n2)OC(=O)C[C@H](O)C(C)(C)C(=O)[C@H](C)[C@@H](O)[C@@H](C)CCC1 [Compound 13, (R)-C14-methyl epothilone D] | > 1000 | > 1000 | > 1000 | relatively weak activity | > 1000 |  |  |  |  | 
2 | C/C(=C\c1csc(C)n1)[C@H]1OC(=O)C[C@H](O)C(C)(C)C(=O)[C@H](C)[C@@H](O)[C@@H](C)CCC[C@@]2(C)O[C@H]2[C@@H]1C [Compound 3, (R)-C14-methyl epothilone B] | 3 | 3 | 23 | significant | 3 | > 2 |  |  |  | 
3 | C/C1=C/C[C@@H](/C(C)=C/c2csc(C)n2)OC(=O)C[C@H](O)C(C)(C)C(=O)[C@H](C)[C@@H](O)[C@@H](C)CCC1 [Epothilone D, reference compound] | 20 | 7 | 26 |  | 5 |  |  |  |  | 
4 | C/C(=C\c1csc(C)n1)[C@H]1OC(=O)C[C@H](O)C(C)(C)C(=O)[C@H](C)[C@@H](O)[C@@H](C)CCC[C@@]2(C)O[C@H]2[C@H]1C [Compound 4, (S)-C14-methyl epothilone B] | > 1000 | > 1000 | > 1000 |  | > 1000 |  |  |  |  | 
5 | C/C1=C/[C@H](C)[C@@H](/C(C)=C/c2csc(C)n2)OC(=O)C[C@H](O)C(C)(C)C(=O)[C@H](C)[C@@H](O)[C@@H](C)CCC1 [Compound 12, (S)-C14-methyl epothilone D] |  |  |  | significant |  |  | 42 | 42 | 238 | 35
